Laboratory results reported in PubChem BioAssay (NCI).
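Dose response: 5 concentrations. Exposure: 48 h. Format: 96-well plates. Endpoint: linear interpolation; highest concentration if not reached. GI50 marks 50% less growth. Definition used: TGI = concentration required for complete inhibition of growth.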

Tests used:
Assay in all cases: NCI anticancer screen, dose series, 48 h
786-0 renal = tested on: 786-0 renal
A498 renal = tested on: A498 renal
A549 NSCLC = tested on: A549 NSCLC
CAKI-1 renal = tested on: CAKI-1 renal
CCRF-CEM leukemia = tested on: CCRF-CEM leukemia
COLO 205 colon = tested on: COLO 205 colon
DU-145 prostate = tested on: DU-145 prostate
HCT-116 colon = tested on: HCT-116 colon
HL-60(TB) leukemia = tested on: HL-60(TB) leukemia
HOP-62 NSCLC = tested on: HOP-62 NSCLC
HS 578T breast = tested on: HS 578T breast
IGROV1 ovarian = tested on: IGROV1 ovarian
K-562 leukemia = tested on: K-562 leukemia
KM12 colon = tested on: KM12 colon
LOX IMVI melanoma = tested on: LOX IMVI melanoma
M14 melanoma = tested on: M14 melanoma
MALME-3M melanoma = tested on: MALME-3M melanoma
MCF7 breast = tested on: MCF7 breast
MDA-MB-231 breast = tested on: MDA-MB-231 breast
MDA-MB-435 = tested on: MDA-MB-435
MOLT-4 leukemia = tested on: MOLT-4 leukemia
NCI-H226 lung = tested on: NCI-H226 lung
NCI-H23 lung = tested on: NCI-H23 lung
NCI-H460 lung = tested on: NCI-H460 lung
NCI-H522 lung = tested on: NCI-H522 lung
NCI/ADR-RES ovarian = tested on: NCI/ADR-RES ovarian
OVCAR-3 ovarian = tested on: OVCAR-3 ovarian
OVCAR-4 ovarian = tested on: OVCAR-4 ovarian
OVCAR-5 ovarian = tested on: OVCAR-5 ovarian
OVCAR-8 ovarian = tested on: OVCAR-8 ovarian
PC-3 prostate = tested on: PC-3 prostate
RPMI-8226 leukemia = tested on: RPMI-8226 leukemia
RXF 393 renal = tested on: RXF 393 renal
SF-268 CNS = tested on: SF-268 CNS
SF-295 CNS = tested on: SF-295 CNS
SF-539 CNS = tested on: SF-539 CNS
SK-MEL-2 melanoma = tested on: SK-MEL-2 melanoma
SK-MEL-28 melanoma = tested on: SK-MEL-28 melanoma
SK-MEL-5 melanoma = tested on: SK-MEL-5 melanoma
SK-OV-3 ovarian = tested on: SK-OV-3 ovarian
SN12C renal = tested on: SN12C renal
SNB-19 CNS = tested on: SNB-19 CNS
SR leukemia = tested on: SR leukemia
SW-620 colon = tested on: SW-620 colon
T-47D breast = tested on: T-47D breast
TK-10 renal = tested on: TK-10 renal
U251 CNS = tested on: U251 CNS
UACC-257 melanoma = tested on: UACC-257 melanoma
UACC-62 melanoma = tested on: UACC-62 melanoma
UO-31 renal = tested on: UO-31 renal

**Q.** For Nc1cc(N)c2nc(-c3ccccc3)c(Sc3ccc(Cl)c(Cl)c3)nc2c1, which GI50 (786-0 renal) is on record?
**A.** 22 µM

**Q.** And the TGI (786-0 renal)?
**A.** 92.1 µM

**Q.** And the GI50 (A498 renal)?
**A.** 21.9 µM

**Q.** What about the TGI (A498 renal) of the same compound?
**A.** 49.9 µM

**Q.** What about the GI50 (A549 NSCLC) of the same compound?
**A.** 13.6 µM

**Q.** And the TGI (A549 NSCLC)?
**A.** 51.9 µM

**Q.** What about the GI50 (CAKI-1 renal) of the same compound?
**A.** 14 µM

**Q.** What about the TGI (CAKI-1 renal) of the same compound?
**A.** 41.1 µM

**Q.** What about the GI50 (CCRF-CEM leukemia) of the same compound?
**A.** 2.52 µM

**Q.** What about the TGI (CCRF-CEM leukemia) of the same compound?
**A.** > 100 µM

**Q.** What about the GI50 (COLO 205 colon) of the same compound?
**A.** 10.8 µM

**Q.** What about the TGI (COLO 205 colon) of the same compound?
**A.** 33.6 µM

**Q.** And the GI50 (DU-145 prostate)?
**A.** 11.1 µM

**Q.** What about the TGI (DU-145 prostate) of the same compound?
**A.** 25 µM

**Q.** What about the GI50 (HCT-116 colon) of the same compound?
**A.** 9.43 µM

**Q.** And the TGI (HCT-116 colon)?
**A.** 47.9 µM

**Q.** And the GI50 (HL-60(TB) leukemia)?
**A.** 8.02 µM

**Q.** And the TGI (HL-60(TB) leukemia)?
**A.** > 100 µM

**Q.** And the GI50 (HOP-62 NSCLC)?
**A.** 12.4 µM

**Q.** What about the TGI (HOP-62 NSCLC) of the same compound?
**A.** 78.5 µM

**Q.** And the GI50 (HS 578T breast)?
**A.** 30 µM

**Q.** And the TGI (HS 578T breast)?
**A.** > 100 µM

**Q.** And the GI50 (IGROV1 ovarian)?
**A.** 2.93 µM

**Q.** And the TGI (IGROV1 ovarian)?
**A.** 27.8 µM

**Q.** And the GI50 (K-562 leukemia)?
**A.** 16 µM

**Q.** What about the TGI (K-562 leukemia) of the same compound?
**A.** > 100 µM

**Q.** And the GI50 (KM12 colon)?
**A.** 11.3 µM

**Q.** What about the TGI (KM12 colon) of the same compound?
**A.** > 100 µM

**Q.** What about the GI50 (LOX IMVI melanoma) of the same compound?
**A.** 7.36 µM

**Q.** And the TGI (LOX IMVI melanoma)?
**A.** 24.5 µM

**Q.** And the GI50 (M14 melanoma)?
**A.** 32.2 µM

**Q.** What about the TGI (M14 melanoma) of the same compound?
**A.** > 100 µM

**Q.** And the GI50 (MALME-3M melanoma)?
**A.** 19.6 µM

**Q.** What about the TGI (MALME-3M melanoma) of the same compound?
**A.** 50.3 µM

**Q.** What about the GI50 (MCF7 breast) of the same compound?
**A.** 5.3 µM

**Q.** And the TGI (MCF7 breast)?
**A.** 37.8 µM

**Q.** And the GI50 (MDA-MB-231 breast)?
**A.** 16.6 µM

**Q.** What about the TGI (MDA-MB-231 breast) of the same compound?
**A.** 54.2 µM

**Q.** And the GI50 (MDA-MB-435)?
**A.** 18.3 µM

**Q.** What about the TGI (MDA-MB-435) of the same compound?
**A.** 60.9 µM

**Q.** What about the GI50 (MOLT-4 leukemia) of the same compound?
**A.** 4.08 µM

**Q.** And the TGI (MOLT-4 leukemia)?
**A.** > 100 µM

**Q.** And the GI50 (NCI-H226 lung)?
**A.** 3.05 µM

**Q.** What about the TGI (NCI-H226 lung) of the same compound?
**A.** 9.19 µM

**Q.** What about the GI50 (NCI-H23 lung) of the same compound?
**A.** 12.5 µM

**Q.** And the TGI (NCI-H23 lung)?
**A.** 34.5 µM

**Q.** And the GI50 (NCI-H460 lung)?
**A.** 10.5 µM

**Q.** What about the TGI (NCI-H460 lung) of the same compound?
**A.** 33.5 µM

**Q.** What about the GI50 (NCI-H522 lung) of the same compound?
**A.** 7.67 µM

**Q.** What about the TGI (NCI-H522 lung) of the same compound?
**A.** 34 µM

**Q.** What about the GI50 (NCI/ADR-RES ovarian) of the same compound?
**A.** 19.1 µM

**Q.** And the TGI (NCI/ADR-RES ovarian)?
**A.** 60.4 µM

**Q.** And the GI50 (OVCAR-3 ovarian)?
**A.** 11.7 µM

**Q.** What about the TGI (OVCAR-3 ovarian) of the same compound?
**A.** 46.4 µM

**Q.** And the GI50 (OVCAR-4 ovarian)?
**A.** 20 µM

**Q.** What about the TGI (OVCAR-4 ovarian) of the same compound?
**A.** > 100 µM

**Q.** What about the GI50 (OVCAR-5 ovarian) of the same compound?
**A.** 38.9 µM

**Q.** And the TGI (OVCAR-5 ovarian)?
**A.** 59.5 µM

**Q.** What about the GI50 (OVCAR-8 ovarian) of the same compound?
**A.** 24.7 µM

**Q.** And the TGI (OVCAR-8 ovarian)?
**A.** > 100 µM

**Q.** And the GI50 (PC-3 prostate)?
**A.** 5.78 µM

**Q.** What about the TGI (PC-3 prostate) of the same compound?
**A.** 35.9 µM

**Q.** What about the GI50 (RPMI-8226 leukemia) of the same compound?
**A.** 3.81 µM

**Q.** And the TGI (RPMI-8226 leukemia)?
**A.** 31.6 µM

**Q.** And the GI50 (RXF 393 renal)?
**A.** 14 µM

**Q.** And the TGI (RXF 393 renal)?
**A.** 56.7 µM

**Q.** What about the GI50 (SF-268 CNS) of the same compound?
**A.** 13.7 µM

**Q.** And the TGI (SF-268 CNS)?
**A.** 51.1 µM

**Q.** What about the GI50 (SF-295 CNS) of the same compound?
**A.** 17.7 µM

**Q.** What about the TGI (SF-295 CNS) of the same compound?
**A.** 60.1 µM

**Q.** And the GI50 (SF-539 CNS)?
**A.** 14.4 µM

**Q.** And the TGI (SF-539 CNS)?
**A.** 41.8 µM

**Q.** And the GI50 (SK-MEL-2 melanoma)?
**A.** 6.2 µM

**Q.** And the TGI (SK-MEL-2 melanoma)?
**A.** 31.1 µM

**Q.** And the GI50 (SK-MEL-28 melanoma)?
**A.** 13.7 µM

**Q.** And the TGI (SK-MEL-28 melanoma)?
**A.** 56.9 µM

**Q.** What about the GI50 (SK-MEL-5 melanoma) of the same compound?
**A.** 21.4 µM

**Q.** What about the TGI (SK-MEL-5 melanoma) of the same compound?
**A.** 95.5 µM

**Q.** And the GI50 (SK-OV-3 ovarian)?
**A.** 14.7 µM

**Q.** What about the TGI (SK-OV-3 ovarian) of the same compound?
**A.** 39.4 µM

**Q.** And the GI50 (SN12C renal)?
**A.** 23.2 µM

**Q.** What about the TGI (SN12C renal) of the same compound?
**A.** > 100 µM

**Q.** And the GI50 (SNB-19 CNS)?
**A.** 17 µM

**Q.** What about the TGI (SNB-19 CNS) of the same compound?
**A.** 58.1 µM

**Q.** And the GI50 (SR leukemia)?
**A.** 4.63 µM

**Q.** And the TGI (SR leukemia)?
**A.** 35.3 µM

**Q.** What about the GI50 (SW-620 colon) of the same compound?
**A.** 20.9 µM

**Q.** What about the TGI (SW-620 colon) of the same compound?
**A.** 83.6 µM

**Q.** And the GI50 (T-47D breast)?
**A.** 13.3 µM

**Q.** And the TGI (T-47D breast)?
**A.** > 100 µM

**Q.** What about the GI50 (TK-10 renal) of the same compound?
**A.** 14.6 µM

**Q.** And the TGI (TK-10 renal)?
**A.** 31.8 µM

**Q.** What about the GI50 (U251 CNS) of the same compound?
**A.** 10.3 µM

**Q.** What about the TGI (U251 CNS) of the same compound?
**A.** > 100 µM

**Q.** What about the GI50 (UACC-257 melanoma) of the same compound?
**A.** 17.6 µM

**Q.** And the TGI (UACC-257 melanoma)?
**A.** 59 µM

**Q.** And the GI50 (UACC-62 melanoma)?
**A.** 6.7 µM

**Q.** And the TGI (UACC-62 melanoma)?
**A.** 42.8 µM

**Q.** What about the GI50 (UO-31 renal) of the same compound?
**A.** 14 µM

**Q.** And the TGI (UO-31 renal)?
**A.** 76.7 µM
